Measured values published in EP1304119A2, “Method for preventing and treating hearing loss using a neurturin protein product” (Amgen Inc., priority 1997, dated 1999).

Legend:
[1] = test system: cochlear hair cells; experiment: Organ of Corti (cochlea) explant culture, hair cell survival after neomycin exposure (FITC-phalloidin count); type: cell-based, rat; conditions: for Hair cell survival (% of untreated): Neomycin alone (0.6 mM), added 24 hours after plating, 3 days exposure, mean ± SD, 4320 min, 600 µM
Source text: • 1. Neomycin solution (Cat. #N1142, Sigma. St. […] Cat. #X-100, Sigma. St. Louis, MO) • 4. Phalloidin (FITC Labeled. Cat. #P-5282, Sigma. St. Louis, MO) • 5. Vectashield (Mounting Medium, Cat. #H-1000, Vector, Burlingame, CA)
Organ of Corti explants were obtained from P3-P4 Wistar rats. Rats were decapitated, the lower jaw was cut out and skin removed. The temporal bone was collected in dissection solution, the otic capsule exposed and the bony-cartilaginous cochlear capsule was carefully separated from the temporal bone. Freed cochlea were transferred to another Petri dish with dissection solution for further dissection. Intact organs of Corti were obtained by using a fine forceps to hold central VIII nerve tissue and remove it out, then the stria vascular membrane was carefully stripped off, starting from the apex or base. The organ of Corti was then transferred to a 35-mm diameter Petri dish containing cold PBS supplemented with glucose and ready to be cultured.
Cochlea explants were cultured in uncoated 96 well microplates. A single organ of Corti was placed in a well and was kept floating in the medium.
Explants were kept in normal medium for 24 hours (90 µl/well). Neurturin protein solution (10 µl) was added to the 'treated' cultures, and 10 µl of medium were added to controls. After 24 hours of incubation, the media were changed and the explants were exposed to ototoxin-containing medium (90 µl), with neurturin protein solution (10µl) or without (control). The cultures were incubated for an additional 3 days. […]
To identify and count hair cells in the organ of Corti, a direct immunostaining method was used to label the actin present naturally in the stereocilia bundles of the hair cells. […] The explants were . observed under a Nikon Diaphot-300 inverted fluorescence microscope, using FITC filters and fluorescence optics.
For each experimental point, 2 to 4 cochlea were used. In each cochlea, the number of hair cells was counted in 2-3 section, […] in length each. Only the sections in the middle turn of the cochlea were analyzed. […]

[2] = test system: cochlear hair cells; experiment: In vivo hair cell loss after cisplatin, neurturin infused into the inner ear by mini-pump; set-up: species or system guinea pigs; conditions: cisplatin 7.5 mg/kg twice
Protocol: The following example describes the inner ear administration of neurturin protein product to protect cochlear hair cells against ototoxicity in an animal model. The neurturin protein product is introduced into the inner ear via a cannula pushed into the scala tympani through a hole drilled in the basal turn of the cochlea. The cannula is connected to an Alzet mini-pump loaded with neurturin protein product (50 ng/ml) at a releasing rate of 0.5 µl/hour for 14 days. […] The experiment is terminated after 27 days. The hair cells are stained with FITC-phalloidin, and their number is determined in the middle turn of the cochlea (in at least 20% of the middle turn part). The results are expressed as the percent of hair cells lost for each individual guinea pig for the neurturin protein product treated ear (right ear) and the untreated ear (left ear).
The loading of a pump with methylene dye is done by holding the pump in a vertical position. A dye-loaded syringe is inserted completely into the pump, and the dye is injected until the pump overflowed. Injection of any air bubbles into the pump is avoided. A short piece of sterile V/4 tubing is placed onto the Flow Moderator. Neurturin protein product is loaded at a concentration of 50 ng/ml in PBS + 0.1% BSA, in a total volume of 230 µl, to within about 10 mm of the cannula tip, using a syringe connected with V/4 tubing. […]

[3] = test system: cochlear hair cells; experiment: Organ of Corti (cochlea) explant culture, hair cell survival after cisplatin exposure (FITC-phalloidin count); type: cell-based, rat; conditions: cisplatin treatment alone
Source text: Triton X-100 (t-Octylphenoxypoly-ethoxyethanol. Cat. #X-100, Sigma. St. Louis, MO) • 4. Phalloidin (FITC Labeled. Cat. #P-5282, Sigma. St. Louis, MO) • 5. Vectashield (Mounting Medium, Cat. #H-1000, Vector, Burlingame, CA)
Organ of Corti explants were obtained from P3-P4 Wistar rats. Rats were decapitated, the lower jaw was cut out and skin removed. The temporal bone was collected in dissection solution, the otic capsule exposed and the bony-cartilaginous cochlear capsule was carefully separated from the temporal bone. Freed cochlea were transferred to another Petri dish with dissection solution for further dissection. […] The organ of Corti was then transferred to a 35-mm diameter Petri dish containing cold PBS supplemented with glucose and ready to be cultured. […]
For each experimental point, 2 to 4 cochlea were used. In each cochlea, the number of hair cells was counted in 2-3 section, 175 mm in length each. Only the sections in the middle turn of the cochlea were analyzed. […]

Compound | Hair cell survival (% of untreated) [1] | Hair cell survival (% of untreated) ([1]; listed as neomycin) | morphology of the organs of Corti (four-row structure) ([1]; neomycin treatment alone, spared hair cells) | loss of hair cells in the left ear (untreated ear) [2] | morphology of the organs of Corti (four-row structure) [3]
Neomycin | 5.9 ± 4.7 n=23% | 6% | still organized in the typical four row structure |  | 
N.N.[Cl][Pt][Cl] [Cisplatin] |  |  |  | approximately 40% | caused a marked disruption of the four-row-structure
